One series addresses T1, human TLR7 (Homo sapiens, UniProt Q9NYK1).
T1 construct: host or cells: HEK293 (HEK-Blue hTLR7)
T1 sequence (Q9NYK1 27-1049): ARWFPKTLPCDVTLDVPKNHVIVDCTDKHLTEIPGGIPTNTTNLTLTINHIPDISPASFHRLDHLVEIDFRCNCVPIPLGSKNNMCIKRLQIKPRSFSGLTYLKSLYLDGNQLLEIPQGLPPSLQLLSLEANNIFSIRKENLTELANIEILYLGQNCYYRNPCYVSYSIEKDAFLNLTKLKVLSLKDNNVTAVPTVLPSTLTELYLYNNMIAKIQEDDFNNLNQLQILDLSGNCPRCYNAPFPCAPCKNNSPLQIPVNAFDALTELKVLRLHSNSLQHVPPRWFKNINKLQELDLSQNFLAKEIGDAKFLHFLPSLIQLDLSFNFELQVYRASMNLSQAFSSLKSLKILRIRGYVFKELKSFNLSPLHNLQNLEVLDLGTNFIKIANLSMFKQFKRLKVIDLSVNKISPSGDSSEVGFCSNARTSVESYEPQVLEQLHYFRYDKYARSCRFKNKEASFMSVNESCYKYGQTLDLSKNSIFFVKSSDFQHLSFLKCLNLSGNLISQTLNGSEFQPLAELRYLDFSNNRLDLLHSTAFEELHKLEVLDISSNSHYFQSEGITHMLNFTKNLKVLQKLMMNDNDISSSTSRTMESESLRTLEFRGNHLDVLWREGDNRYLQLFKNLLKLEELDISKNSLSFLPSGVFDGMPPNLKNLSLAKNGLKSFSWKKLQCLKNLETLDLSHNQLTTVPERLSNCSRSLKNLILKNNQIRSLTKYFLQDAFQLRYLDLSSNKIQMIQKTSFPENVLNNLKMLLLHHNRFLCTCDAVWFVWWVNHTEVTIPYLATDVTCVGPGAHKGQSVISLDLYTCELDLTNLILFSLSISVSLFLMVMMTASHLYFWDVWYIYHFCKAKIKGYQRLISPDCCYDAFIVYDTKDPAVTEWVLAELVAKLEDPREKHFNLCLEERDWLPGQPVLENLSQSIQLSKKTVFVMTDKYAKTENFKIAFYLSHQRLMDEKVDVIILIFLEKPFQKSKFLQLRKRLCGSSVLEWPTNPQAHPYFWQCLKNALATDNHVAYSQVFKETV
The series can be described thus: HEK293-Blue-hTLR-7 cells assay. The format is cell-based. The conditions noted are these: HEK293-Blue-hTLR7 cells, R848 stimulation, 20 hrs, SEAP reporter; read-out: HEK/hTLR7 IC50. The source says: A stable HEK293-Blue-hTLR-7 cell line was purchased from InvivoGen (Cat. #: hkb-htlr7, San Diego, California, USA). These cells were originally designed for studying the stimulation of human TLR7 by monitoring the activation of NF-κB. A SEAP (secreted embryonic alkaline phosphatase) reporter gene was placed under the control of the IFN-β minimal promoter fused to five NF-κB and AP-1-binding sites. The SEAP was induced by activating NF-κB and AP-1 via stimulating HEK-Blue hTLR7 cells with TLR7 ligands. Therefore the reporter expression was declined by TLR7 antagonist under the stimulation of a ligand, such as R848 (Resiquimod), for incubation of 20 hrs. The cell culture supernatant SEAP reporter activity was determined using QUANTI-Blue™ kit (Cat. #: rep-qb1, Invivogen, San Diego, Ca, USA) at a wavelength of 640 nm, a detection medium that turns purple or blue in the presence of alkaline phosphatase.
HEK293-Blue-hTLR7 cells were incubated at a density of 250,000˜450,000 cells/mL in a volume of 170 μL in a 96-well plate in Dulbecco's Modified Eagle's medium (DMEM) containing 4.5 g/L glucose, 50 U/mL penicillin, […], […], 2 mM L-glutamine, 10% (v/v) heat-inactivated fetal bovine serum with addition of 20 μL test compound in a serial dilution in the presence of final DMSO at 1% and 10 μL of 20 uM R848 in above DMEM, perform incubation under 37° C. in a CO2 incubator for 20 hrs. Then 20 μL of the supernatant from each well was incubated with 180 μL Quanti-blue substrate solution at 37° C. for 2 hrs and the absorbance was read at 620˜655 nm using a spectrophotometer. The signaling pathway that TLR7 activation leads to downstream NF-κB activation has been widely accepted, and therefore similar reporter assay was modified for evaluating TLR7 antagonist.

The target in another series is T2, CYP2C9 (Homo sapiens, UniProt P11712).
T2 construct: tissue BD-Gentest 452117; host or cells: human liver microsomes
The series can be described thus: CYP inhibition assay in human liver microsome, CYP2C9. The series is classed as in vitro ADME. The conditions noted are these: percentage inhibition, substrate Diclofenac 5 μM. Here is the method:
This is a high throughput screening assay used for assessment of reversible inhibition of CYP2C9, CYP2D6, and CYP3A4 activity of test compounds in human liver microsome (HLM) in early discovery stage.
10 mM DMSO stock solutions of test compounds were diluted in DMSO to generate 2 mM intermediate stock solution. 250 nL of intermediate stock solution were transferred in duplicate into 3 separate 384 well microtitre plates (assay-ready plates). A mixture of HLM and each substrate was made up. 45 μL of HLM substrate mix was then transferred to each well of an assay ready plate and mixed. The negative (solvent) and positive controls (standard inhibitor for each CYP) were included in each assay ready plate. The assay ready plate was warmed to 37° C. in an incubator over 10 minutes. 5 μL pre-warmed NADPH regenerating system was added to each incubation well to start the reaction. Final incubation volume was 50 μL. The assay plate then was placed back in the 37° C. incubator. After incubation (10 minutes for CYP2D6) for 5 minutes, incubates were quenched by addition of 50 μL 100% acetonitrile containing internal standards (400 ng/mL 13C6-4′-OH-Diclofenac, 20 ng/mL D3-Dextrorphan and 20 ng/mL D4-1′OH-Midazolam). The supernatants were collected for RapidFire/MS/MS analysis.
RapidFire online solid phase extraction/sample injection system (Agilent) coupled with API4000 triple quadrupole mass spectrometer (AB Sciex) were used for sample analysis. The mobile phase composed of acetonitrile and water supplemented with 0.1% formic acid. A C4 solid phase extraction cartridge is used for sample separation. MS detection is achieved in positive ion MRM mode.
Peak areas for substrate, metabolite and internal standard are determined using the RapidFire integrator software (version 3.6.12009.12296). Peak area ratios (PAR) of metabolite and internal standard (stable-labelled metabolite) are then calculated. The measurement window for each experiment is then defined:
PAR (0% activity)=average PAR for all incubations containing concentrated inhibitor;
Par (100% activity)=average PAR for all incubations containing no inhibitor (DMSO controls);
% Activity (test inhibitor)=[PAR(test inhibitor)−PAR(0% activity)/PAR(100% activity)−PAR(0% activity)];
% Inhibition (test inhibitor)=100−% Activity (test inhibitor).
For orientation: Microsomes from liver hold many membrane-bound enzymes, among them those of drug oxidation.

T2 sequence (P11712 whole entry): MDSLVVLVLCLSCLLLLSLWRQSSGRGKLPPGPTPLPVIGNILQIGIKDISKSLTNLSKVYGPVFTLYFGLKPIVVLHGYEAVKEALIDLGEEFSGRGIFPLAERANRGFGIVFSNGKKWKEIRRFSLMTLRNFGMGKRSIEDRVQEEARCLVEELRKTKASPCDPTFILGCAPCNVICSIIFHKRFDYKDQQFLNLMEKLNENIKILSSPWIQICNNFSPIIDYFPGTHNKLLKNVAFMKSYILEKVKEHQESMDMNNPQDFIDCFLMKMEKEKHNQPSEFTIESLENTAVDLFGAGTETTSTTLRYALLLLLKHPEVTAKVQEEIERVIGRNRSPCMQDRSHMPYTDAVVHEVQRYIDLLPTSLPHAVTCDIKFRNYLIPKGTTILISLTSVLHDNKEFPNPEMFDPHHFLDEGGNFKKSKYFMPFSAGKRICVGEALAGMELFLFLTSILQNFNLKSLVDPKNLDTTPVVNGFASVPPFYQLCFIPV

Regarding `CO[C@H]1CN(c2ccc([C@@H]3CCN4[C@@H](C3)CN(c3ccc(C#N)c5ncccc35)C[C@H]4C)cn2)C[C@@H]1N` [Example 6, 5-[(4R,8R,9aS)-8-[6-[(3S,4S)-3-amino-4-methoxy-pyrrolidin-1-yl]-3-pyridyl]-4-methyl-1,3,4,6,7,8,9,9a-octahydropyrido[1,2-a]pyrazin-2-yl]quinoline-8-carbonitrile], the IC50 on human TLR7 was found to be 41 nM. Besides, the “CYP (%) 2C9” value on CYP2C9 is recorded as −8%.

Consider `C[C@@H]1CN(c2ccc(C#N)c3ncccc23)C[C@@H]2C[C@H](c3ccc([C@@H]4CNCCO4)cc3)CCN21` [Example 27, 5-[(4R,8R,9aS)-4-methyl-8-[4-[(2R)-morpholin-2-yl]phenyl]-1,3,4,6,7,8,9,9a-octahydropyrido[1,2-a]pyrazin-2-yl]quinoline-8-carbonitrile], for which the IC50 on human TLR7 was found to be 4 nM. Besides, the “CYP (%) 2C9” value at CYP2C9 is 4%.

Consider `C[C@@H]1CN(c2ccc(C#N)c3ncccc23)C[C@@H]2C[C@H](c3ccc(N4C[C@@H](N)[C@@H](F)C4)nc3)CCN21` [Example 19, 5-[(4R,8R,9aS)-8-[6-[(3R,4S)-3-amino-4-fluoro-pyrrolidin-1-yl]-3-pyridyl]-4-methyl-1,3,4,6,7,8,9,9a-octahydropyrido[1,2-a]pyrazin-2-yl]quinoline-8-carbonitrile], for which, on human TLR7, the IC50 amounted to 15 nM. Besides, the “CYP (%) 2C9” value at CYP2C9 is −3.5%.

For the compound `C[C@@H]1CN(c2ccc(C#N)c3ncccc23)C[C@@H]2C[C@H](N3CC(c4ccc(N5CCNCC5)cc4)C3)CCN21` [Example 9, 5-[(4R,8R,9aS)-4-methyl-8-[3-(4-piperazin-1-ylphenyl)azetidin-1-yl]-1,3,4,6,7,8,9,9a-octahydropyrido[1,2-a]pyrazin-2-yl]quinoline-8-carbonitrile], the IC50 at human TLR7 was 27 nM. Further, the “CYP (%) 2C9” value on CYP2C9 is recorded as −6.5%.

Turning to `CO[C@H]1CN(c2ccc([C@@H]3CCN4[C@@H](C3)CN(c3ccc(C#N)c5ncccc35)C[C@H]4C)cn2)C[C@H]1N` [Example 12, 5-[(4R,8R,9aS)-8-[6-[(3R,4S)-3-amino-4-methoxy-pyrrolidin-1-yl]-3-pyridyl]-4-methyl-1,3,4,6,7,8,9,9a-octahydropyrido[1,2-a]pyrazin-2-yl]quinoline-8-carbonitrile], the IC50 at human TLR7 turned out to be 17 nM. The “CYP (%) 2C9” value on CYP2C9 came out at 14.5%.

For `C[C@@H]1CN(c2ccc(C#N)c3ncccc23)C[C@@H]2C[C@@H](Oc3ccc(N4CCNCC4)cn3)CCN21` [Example 11, 5-[(4R,8S,9aS)-4-methyl-8-[(5-piperazin-1-yl-2-pyridyl)oxy]-1,3,4,6,7,8,9,9a-octahydropyrido[1,2-a]pyrazin-2-yl]quinoline-8-carbonitrile], the IC50 at human TLR7 came to 46 nM. On CYP2C9, the “CYP (%) 2C9” value is 0%.

In the case of `[2H]c1ccc2c(N3C[C@@H]4C[C@H](N5CCN(c6ccncc6)CC5)CCN4[C@H](C)C3)ccc(C#N)c2n1` [Example 37, 5-[(4R,8R,9aS)-4-methyl-8-[4-(4-pyridyl)piperazin-1-yl]-1,3,4,6,7,8,9,9a-octahydropyrido[1,2-a]pyrazin-2-yl]-2-deuterio-quinoline-8-carbonitrile], the IC50 at human TLR7 stood at 11 nM. At CYP2C9, the “CYP (%) 2C9” value amounted to 4.5%.

Consider `CO[C@@H]1CN(c2ccc([C@@H]3CCN4[C@@H](C3)CN(c3ccc(C#N)c5ncccc35)C[C@H]4C)cn2)C[C@H]1N` [Example 14, 5-[(4R,8R,9aS)-8-[6-[(3R,4R)-3-amino-4-methoxy-pyrrolidin-1-yl]-3-pyridyl]-4-methyl-1,3,4,6,7,8,9,9a-octahydropyrido[1,2-a]pyrazin-2-yl]quinoline-8-carbonitrile], for which the IC50 on human TLR7 was found to be 23 nM. Also, the “CYP (%) 2C9” value at CYP2C9 was −1%.

Turning to `[2H]c1ccc2c(N3C[C@@H]4C[C@H](Nc5ccc(C[C@H]6CNCCO6)cc5)CCN4[C@H](C)C3)ccc(C#N)c2n1` [Example 34, 5-[(4R,8R,9aS)-4-methyl-8-[4-[[(2S)-morpholin-2-yl]methyl]anilino]-1,3,4,6,7,8,9,9a-octahydropyrido[1,2-a]pyrazin-2-yl]-2-deuterio-quinoline-8-carbonitrile], the IC50 at human TLR7 stood at 47 nM. On CYP2C9, the “CYP (%) 2C9” value was −20%.

For the compound `C[C@@H]1CN(c2ccc(C#N)c3ncccc23)C[C@@H]2C[C@H](c3ccc(N4CCNCC4)nc3)CCN21` (stereo in doubt) [Example 2, 5-[(4R,8R)-4-methyl-8-(6-piperazin-1-yl-3-pyridyl)-1,3,4,6,7,8,9,9a-octahydropyrido[1,2-a]pyrazin-2-yl]quinoline-8-carbonitrile], at human TLR7, the IC50 was determined as 4 nM. Besides, on CYP2C9, the “CYP (%) 2C9” value was 6%.

In the case of `C[C@@H]1CN(c2ccc(C#N)c3ncccc23)C[C@@H]2C[C@H](Nc3ccc(C[C@@H]4CNCCO4)cc3)CCN21` [Example 21, 5-[(4R,8R,9aS)-4-methyl-8-[4-[[(2R)-morpholin-2-yl]methyl]anilino]-1,3,4,6,7,8,9,9a-octahydropyrido[1,2-a]pyrazin-2-yl]quinoline-8-carbonitrile], the IC50 at human TLR7 turned out to be 20 nM. The “CYP (%) 2C9” value at CYP2C9 is on record as 3%.

Regarding `C[C@@H]1CN(c2ccc(C#N)c3ncccc23)C[C@@H]2C[C@H](c3ccc(N4CC(N)C4)nc3)CCN21` [Example 7, 5-[(4R,8R,9aS)-8-[6-(3-aminoazetidin-1-yl)-3-pyridyl]-4-methyl-1,3,4,6,7,8,9,9a-octahydropyrido[1,2-a]pyrazin-2-yl]quinoline-8-carbonitrile], the IC50 on human TLR7 stood at 32 nM.
